Results: ChEMBL document CHEMBL5614368, “Fyn, Blk, and Lyn kinase inhibitors: A mini-review on medicinal attributes, research progress, and future insights” (Bioorg Med Chem Lett, 2024)
pIC50, pKi: −log10 of the molar value.

What was measured:
[1] = target: Proto-oncogene tyrosine-protein kinase Src (Homo sapiens, UniProt P12931); experiment: Binding affinity to SRC (unknown origin) assessed as inhibition constant
[2] = target: Tyrosine-protein kinase Fyn (Homo sapiens, UniProt P06241); experiment: Inhibition of full-length human recombinant Fyn using Poly(Glu4, Tyr1) as substrate measured for 60 mins by Kinase-Glo reagent based analysis
[3] = target: Tyrosine-protein kinase Lyn (Homo sapiens) (UniProt P07948); experiment: Inhibition of LYN (unknown origin) at 0.1 uM relative to control
Sequence of Tyrosine-protein kinase Lyn (Homo sapiens) (P07948 2-512 limits assumed): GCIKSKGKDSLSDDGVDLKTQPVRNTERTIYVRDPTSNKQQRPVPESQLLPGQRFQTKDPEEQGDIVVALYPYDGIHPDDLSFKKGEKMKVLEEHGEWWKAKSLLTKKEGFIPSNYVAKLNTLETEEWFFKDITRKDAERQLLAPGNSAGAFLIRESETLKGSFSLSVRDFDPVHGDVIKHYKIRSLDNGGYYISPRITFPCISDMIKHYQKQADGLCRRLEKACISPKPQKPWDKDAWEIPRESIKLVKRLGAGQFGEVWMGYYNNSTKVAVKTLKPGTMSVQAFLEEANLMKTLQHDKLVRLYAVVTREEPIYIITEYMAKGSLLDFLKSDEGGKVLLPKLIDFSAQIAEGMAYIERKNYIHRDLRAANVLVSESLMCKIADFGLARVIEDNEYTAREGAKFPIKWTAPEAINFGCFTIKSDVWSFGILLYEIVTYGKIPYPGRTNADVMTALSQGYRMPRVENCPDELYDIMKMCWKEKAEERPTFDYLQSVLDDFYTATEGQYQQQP

Sequence of Tyrosine-protein kinase Fyn (P06241 whole entry): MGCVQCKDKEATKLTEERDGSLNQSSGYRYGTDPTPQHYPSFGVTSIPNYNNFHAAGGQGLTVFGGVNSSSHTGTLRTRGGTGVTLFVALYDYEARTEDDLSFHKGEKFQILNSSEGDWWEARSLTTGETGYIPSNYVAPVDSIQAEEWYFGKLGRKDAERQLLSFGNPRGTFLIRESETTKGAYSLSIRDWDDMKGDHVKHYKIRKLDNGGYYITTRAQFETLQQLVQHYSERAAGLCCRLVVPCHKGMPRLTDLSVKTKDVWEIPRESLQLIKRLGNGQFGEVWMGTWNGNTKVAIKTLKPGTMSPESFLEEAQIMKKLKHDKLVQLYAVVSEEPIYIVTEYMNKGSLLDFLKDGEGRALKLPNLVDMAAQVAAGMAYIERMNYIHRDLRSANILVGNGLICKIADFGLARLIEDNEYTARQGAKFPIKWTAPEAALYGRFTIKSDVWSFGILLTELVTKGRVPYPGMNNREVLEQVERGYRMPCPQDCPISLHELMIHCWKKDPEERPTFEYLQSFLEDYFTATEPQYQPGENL
Sequence of Proto-oncogene tyrosine-protein kinase Src (P12931 2-536 limits assumed): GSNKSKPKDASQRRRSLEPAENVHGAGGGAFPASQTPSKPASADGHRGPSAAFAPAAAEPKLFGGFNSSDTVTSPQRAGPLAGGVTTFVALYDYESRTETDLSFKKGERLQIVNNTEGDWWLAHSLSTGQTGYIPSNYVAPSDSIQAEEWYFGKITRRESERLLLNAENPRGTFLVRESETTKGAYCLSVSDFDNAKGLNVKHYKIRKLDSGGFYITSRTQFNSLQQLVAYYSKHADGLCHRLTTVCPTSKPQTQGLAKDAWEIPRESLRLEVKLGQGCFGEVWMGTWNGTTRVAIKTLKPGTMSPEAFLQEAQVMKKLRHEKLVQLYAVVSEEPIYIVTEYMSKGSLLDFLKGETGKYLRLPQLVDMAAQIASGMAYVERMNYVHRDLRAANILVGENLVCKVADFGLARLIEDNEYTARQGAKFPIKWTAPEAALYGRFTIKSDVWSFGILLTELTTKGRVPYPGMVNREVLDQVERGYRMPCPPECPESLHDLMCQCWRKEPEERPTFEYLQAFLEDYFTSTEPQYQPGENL

Oc1ccc(F)c(Nc2nc(SCCN3CCOCC3)nc3c2cnn3CC(Cl)c2ccccc2)c1 (centres undefined)
pKi [1]: 6.77

Cc1nnc(NC2CCCCC2)nc1O
pIC50 [2]: 6.12

Cc1n[nH]c(Nc2ccc3c(c2)OCO3)nc1=O
pIC50 [2]: 5.32

CSc1ccc(C(=O)NCc2cc3c(=O)[nH]c(N)nc3[nH]2)cc1
inhibition [3]: 42%
